From US10709764B2, “Use of compounds with thrombopoietic activity to promote bone growth and healing” (Osteofuse, Inc., priority 2010, dated 2020)

Experiments:
[1] = test system: critical sized femoral defect; assay: Mouse critical sized femoral defect with scaffold, x-ray follow-up; type: in vivo, C57BL/6 male mice
Text: A critical sized femoral defect was created in the right femur of ten-week old C57BL/6 male mice. Our scaffold was inserted into the defect site. […] Referring now to FIG. 6, a critical sized femoral defect was created in the right femur of ten week old C57BL/6 male mice. A scaffold was inserted into the defect site.

[2] = test system: critical sized defect in the rat femur; assay: Long Evans rat femur gap model, scaffold in 5 mm segmental defect; type: in vivo, Long Evans rats
Text: A pilot study utilizing the Long Evans rat femur gap model which has been approved by the Laboratory Animal Care and Usage Committee (IACUC) at Indiana University was used to test a new method for repairing bone gaps. In brief, tube shape scaffolds with 4 mm external diameter, 2 mm internal diameter and 5 mm in height were manufactured from poly(propylene) fumarate/tricalcium phosphate. […] In the control group, the scaffolds were left untreated (n=3/group). Segmental defects of 5 mm were created in the right femurs of male Long Evans rats. The defect was filled with a 5 mm scaffold and secured with an intramedullary K-wire placed in retrograde fashion. Femurs were imaged by x-ray to assure proper placement and integrity of the scaffold. The rats were then imaged using x-ray at three week intervals to assess continued healing. At post-operative weeks 6 and 15, rats were euthanized and femurs analyzed by x-ray, microCT, and histology.
At 15 weeks, mineralized callus was seen bridging the two bone ends. In some areas adjacent to the scaffolds, isolated patches of cartilage with hypertrophic chondrocytes were observed, indicating the tissues were undergoing endochondral bone formation.

[3] = test system: C57BL/6 bone marrow macrophages (BMMs); assay: Osteoclast formation from bone marrow macrophages cultured with M-CSF and RANKL, TRAP staining; type: cell-based, mouse
Description: FIG. 2. Bar graph showing C57BL/6 bone marrow macrophages (BMMs) were cultured with M-CSF (30 ng/ml) and RANKL (50 ng/ml). While culturing C57BL/6 BMMs with M-CSF and RANKL (no TPO) results in the generation of mature TRAP^+ multinucleated osteoclasts (OCs) (>3 nuclei), culturing these cells with TPO (0.1-100 ng/ml) enhances the number OCs by >2-fold. *p<0.05
FIG. 3A. Representative micrograph of cultures of BMMs stimulated with M-CSF (30 ng/ml) and RANKL (50 ng/ml).
FIG. 3B. Representative micrograph of cultures of BMMs stimulated with M-CSF (30 ng/ml) and RANKL (50 ng/ml).

## thrombopoietin [TPO]
[1]; 2 weeks postoperatively, TPO 1 μg, BMP-2 4 μg in scaffold
  bridging callus formation (x-ray): remain unbridged
[1]; 4-6 weeks postoperatively, TPO 1 μg in scaffold
  bridging callus formation (x-ray): have bridged
[1]; 4-6 weeks, TPO 1 μg vs BMP-2 4 μg
  restoration of bone contour compared with BMP-2 scaffolds: better restores the original contour of the bone
[2]; 10 μg in scaffold, post-operative week 15, n=3/group
  healing of critical sized defect (microCT): robustly healed
[2]; 10 μg in scaffold, week 15, BMP-2 from an earlier study
  cortex and trabeculae of the callus compared to callus induced by BMP-2: thicker
[2]; 15 weeks post-operative, μCT (FIG. 5)
  remodeling compared with BMP-2: more extensive remodeling
[3]; TPO 100 ng/ml, M-CSF 30 ng/ml, RANKL 50 ng/ml
  mature multinucleated OCs developed (TRAP staining): Significantly more OCs developed
[3]; TPO 0.1-100 ng/ml, M-CSF 30 ng/ml, RANKL 50 ng/ml, vs no TPO, p<0.05
  enhancement of the number of mature TRAP+ multinucleated osteoclasts (OCs): > 2 fold
[3]; osteoclast progenitors treated with TPO in vitro
  increase of osteoclastogenesis: up to 5 fold
